In patent publication US5262411A, “Isocephem derivatives, and antimicrobial composition containing the derivatives” (Otsuka Pharmaceutical Co., Ltd., priority 1989, dated 1993):
In brackets after ≈: the same amount, converted by molar mass. Read-outs that look alike come from different tables or passages of the source.

What was measured:
Format in all cases: cell-based
S. aureaus FDA-209P = experiment: MIC against S. aureaus FDA-209P by the plate diluted method; settings: Staphylococcus aureus, FDA209P
Description: (§1) In order to investigate the in vitro activity of the test compounds against various bacteria, the minimal inhibitory concentration (MIC) values were determined by the plate diluted method (See CHEMOTHERAPY, 22, 1126-1128, 1974.)
(§2) Each strain was adjusted to 1×10^6 cells/ml (O.D. 600 mμ, 0.07 to 0.16).

E. coli No. 29 = experiment: MIC against E. coli No. 29 by the plate diluted method; settings: Escherichia coli, 1×10^6 cells/ml
Description: as §1, §2

K. pneumoniae NCTC-9632 = experiment: MIC against K. pneumoniae NCTC-9632 by the plate diluted method; settings: Klebsiella pneumoniae, NCTC9632; K. pneumoniae NCTC-9632; 1×10^6 cells/ml; read-out: MIC
Description: as §1, §2

M. moganii IIDkono = experiment: MIC against M. moganii IIDkono by the plate diluted method
Description: as §1, §2

S. marcescens IFO 12648 = experiment: MIC against S. marcescens IFO 12648 by the plate diluted method; settings: Serratia marcescens, IFO12648; S. marcescens IFO 12648; 1×10^6 cells/ml; read-out: MIC
Description: as §1, §2

A. calcoaceticus Ac-54 = experiment: MIC against A. calcoaceticus Ac-54 by the plate diluted method; settings: Acinetobacter calcoaceticus, AC54; A. calcoaceticus Ac-54; 1×10^6 cells/ml; read-out: MIC
Description: as §1, §2

P. aeruginosa ATCC-10145 = experiment: MIC against P. aeruginosa ATCC-10145 by the plate diluted method; settings: Pseudomonas aeruginosa, ATCC10145; P. aeruginosa ATCC-10145; 1×10^6 cells/ml; read-out: MIC
Description: as §1, §2

P. aeruginosa E-2 = experiment: MIC against P. aeruginosa E-2 by the plate diluted method; settings: Pseudomonas aeruginosa, E2; P. aeruginosa E-2; 1×10^6 cells/ml; read-out: MIC
Description: as §1, §2

[1] = S. aureaus FDA-209P, 1×10^6 cells/ml, read-out: MIC
[2] = M. moganii IIDkono, 1×10^6 cells/ml, read-out: MIC

SMILES	MIC (S. aureaus FDA-209P; [1]) [µg/mL]	MIC (E. coli No. 29) [µg/mL]	MIC (K. pneumoniae NCTC-9632) [µg/mL]	MIC (M. moganii IIDkono) [µg/mL]	MIC (S. marcescens IFO 12648) [µg/mL]	MIC (A. calcoaceticus Ac-54) [µg/mL]	MIC (P. aeruginosa ATCC-10145) [µg/mL]	MIC (P. aeruginosa E-2) [µg/mL]	MIC (M. moganii IIDkono; [2]) [µg/mL]	MIC (S. aureaus FDA-209P) [µg/mL]
Cc1nnc(SCC2=C(C(=O)O)N3C(=O)[C@@H](NC(=O)/C(=N\OCc4cc(=O)c(O)cn4O)c4csc(N)n4)[C@H]3CS2)s1 [No. 1, (6S,7S)-7-[(Z)-2-(2-Aminothiazol-4-yl)-2-(1,5-dihydroxy-4-pyridone-2-ylmethoxyimino)acetamide]-3-(2-methyl-1,3,4-thiadiazol-5-yl)thiomethyl-isocephem-4-carboxylic acid]	25 (≈ 38.3 µM)	0.024 (≈ 0.0368 µM)	0.012 (≈ 0.0184 µM)	0.05 (≈ 0.0766 µM)	0.024 (≈ 0.0368 µM)	0.1 (≈ 0.153 µM)	0.1 (≈ 0.153 µM)	0.2 (≈ 0.306 µM)	–	–
Nc1nc(/C(=N/OCc2cc(=O)c(O)cn2O)C(=O)N[C@@H]2C(=O)N3C(C(=O)O)=C(CSc4nncs4)SC[C@H]23)cs1 [No. 2, (6S,7S)-7-[(Z)-2-(2-Aminothiazol-4-yl)-2-(1,5-dihydroxy-4-pyridone-2-ylmethoxyimino)acetamide]-3-(1,3,4-thiadiazol-5-yl)thiomethyl-isocephem-4-carboxylic acid]	12.5 (≈ 19.6 µM)	0.024 (≈ 0.0376 µM)	≤ 0.006	–	0.05 (≈ 0.0783 µM)	0.1 (≈ 0.157 µM)	0.05 (≈ 0.0783 µM)	0.05 (≈ 0.0783 µM)	0.1 (≈ 0.157 µM)	–
CC(C)(O/N=C(\C(=O)N[C@@H]1C(=O)N2C(C(=O)[O-])=C(CSc3cc[n+](CC(=O)c4ccc(O)c(O)c4)cc3)SC[C@H]12)c1csc(N)n1)C(=O)O [No. 3, (6S,7S)-7-[(Z)-2-(2-aminothiazol-4-yl)-2-(1-carboxy-1-methylethoxy)iminoacetamide]-3-{[1-[2-(3,4-dihydroxyphenyl)-2-oxo]ethyl]-4-pyridinio}thiomethylisocephem-4-carboxylate]	0.78 (≈ 1.07 µM)	≤ 0.006	≤ 0.006	–	0.024 (≈ 0.0329 µM)	0.1 (≈ 0.137 µM)	0.05 (≈ 0.0686 µM)	0.05 (≈ 0.0686 µM)	0.024 (≈ 0.0329 µM)	–
CC(C)(O/N=C(\C(=O)N[C@@H]1C(=O)N2C(C(=O)[O-])=C(CSc3cc[n+](CC(=O)NNC(=O)c4ccc(O)c(O)c4)cc3)SC[C@H]12)c1csc(N)n1)C(=O)O [No. 4]	–	0.012 (≈ 0.0153 µM)	≤ 0.006	–	0.024 (≈ 0.0305 µM)	0.2 (≈ 0.254 µM)	0.1 (≈ 0.127 µM)	0.1 (≈ 0.127 µM)	0.024 (≈ 0.0305 µM)	3.13 (≈ 3.98 µM)
Cc1nnc(SCC2=C(C(=O)O)N3C(=O)[C@@H](NC(=O)/C(=N\OCc4ccc(O)c(O)c4)c4csc(N)n4)[C@H]3CS2)s1 [No. 5, (6S,7S)-7-[(Z)-2-(2-aminothiazol-4-yl)-2-(3,4-dihydroxyphenylmethoxyimino)]acetamide-3-(2-methyl-1,3,4-thiadiazol-5-ylthiomethyl)isocephem-4-carboxylic acid]	–	0.012 (≈ 0.0189 µM)	0.012 (≈ 0.0189 µM)	–	0.05 (≈ 0.0786 µM)	0.39 (≈ 0.613 µM)	0.39 (≈ 0.613 µM)	0.39 (≈ 0.613 µM)	0.05 (≈ 0.0786 µM)	1.56 (≈ 2.45 µM)
Cc1nnc(SCC2=C(C(=O)O)N3C(=O)[C@@H](NC(=O)/C(=N\OC(C(=O)O)c4ccc(O)c(O)c4)c4csc(N)n4)[C@H]3CS2)s1 (stereo partly drawn) [No. 6, (6S,7S)-7-{(Z)-2-(2-aminothiazol-4-yl)-2-[carboxy(3,4-dihydroxyphenol)methoxyimino]}acetamide-3-(2-methyl-1,3,4-thiadiazol-5-ylthiomethyl)isocephem-4-carboxylic acid]	–	0.012 (≈ 0.0177 µM)	≤ 0.006	–	0.012 (≈ 0.0177 µM)	0.2 (≈ 0.294 µM)	0.2 (≈ 0.294 µM)	0.39 (≈ 0.574 µM)	0.024 (≈ 0.0353 µM)	3.13 (≈ 4.6 µM)
CC(C)(O/N=C(\C(=O)N[C@@H]1C(=O)N2C(C(=O)[O-])=C(CSc3cc[n+](Cc4cc(=O)c(O)c[nH]4)cc3)SC[C@H]12)c1csc(N)n1)C(=O)O [No. 7, (6S,7S)-7-[(Z)-2-(2-aminothiazol-4-yl)-2-(1-carboxy-1-methylethoxy)imino]acetamide-3-[(5-hydroxy-4-pyridone-2-yl)methyl-4-pyridinio]thiomethylisocephem-4-carboxylate]	–	0.012 (≈ 0.0171 µM)	0.012 (≈ 0.0171 µM)	–	0.012 (≈ 0.0171 µM)	0.2 (≈ 0.285 µM)	0.1 (≈ 0.142 µM)	0.1 (≈ 0.142 µM)	0.024 (≈ 0.0342 µM)	3.13 (≈ 4.46 µM)
Nc1nc(/C(=N/OCC(=O)O)C(=O)N[C@@H]2C(=O)N3C(C(=O)[O-])=C(CSc4cc[n+](CC(=O)c5ccc(O)c(O)c5)cc4)OC[C@H]23)cs1 [No. 8, (6S,7S)-7-[(Z)-2-(2-aminothiazol-4-yl)-2-(1-carboxymethoxy)iminoacetamide]-3 {[1-[2-(3,4-dihydroxyphenyl)-2-oxo]ethyl]-4-pyridinio}thiomethyl-Δ^3 -O-2-isocephem-4-carboxylate]	–	≤ 0.006	≤ 0.006	–	0.024 (≈ 0.0351 µM)	0.05 (≈ 0.073 µM)	0.05 (≈ 0.073 µM)	0.1 (≈ 0.146 µM)	0.024 (≈ 0.0351 µM)	1.56 (≈ 2.28 µM)
Nc1nc(/C(=N/OCc2cc(=O)c(O)cn2O)C(=O)N[C@@H]2C(=O)N3C(C(=O)O)=C(CSc4nnnn4CC(=O)O)SC[C@H]23)cs1 [No. 9, (6S,7S)-7-[(Z)-2-(2-aminothiazol-4-yl)-2-(1,5-dihydroxy-4-pyridone-2-ylmethoxyimino)acetamide]-3-(1-carboxymethyl-1H-tetrazole-5-ylthiomethyl)isocephem-4-carboxylic acid]	100 (≈ 147 µM)	0.012 (≈ 0.0176 µM)	≤ 0.006	–	0.012 (≈ 0.0176 µM)	0.012 (≈ 0.0176 µM)	0.05 (≈ 0.0735 µM)	0.05 (≈ 0.0735 µM)	0.024 (≈ 0.0353 µM)	–
Nc1nc(/C(=N/OCc2cc(=O)c(O)cn2O)C(=O)N[C@@H]2C(=O)N3C(C(=O)O)=C(CSc4nnc(N)s4)SC[C@H]23)cs1 [No. 10, (6S,7S)-7-[(Z)-2-(2-aminothiazol-4-yl)-2-(1,5-dihydroxy-4-pyridone-2-ylmethoxyimino)acetamide]-3-(2-amino-1,3,4-thiadiazol-5-ylthiomethyl)isocephem-4-carboxylic acid]	50 (≈ 76.5 µM)	0.05 (≈ 0.0765 µM)	0.05 (≈ 0.0765 µM)	–	0.05 (≈ 0.0765 µM)	0.78 (≈ 1.19 µM)	0.1 (≈ 0.153 µM)	0.2 (≈ 0.306 µM)	0.05 (≈ 0.0765 µM)	–
Nc1nc(/C(=N/OCc2cc(=O)c(O)cn2O)C(=O)N[C@@H]2C(=O)N3C(C(=O)O)=C(CSc4nnnn4CCO)SC[C@H]23)cs1 [No. 11, (6S,7S)-7-[(Z)-2-(2-aminothiazol-4-yl)-2-(1,5-dihydroxy-4-pyridone-2-ylmethoxyimino)acetamide]-3-[1-(2-hydroxyethyl)-1H-tetrazole-5-ylthiomethyl]isocephem-4-carboxylic acid]	50 (≈ 75 µM)	0.05 (≈ 0.075 µM)	0.012 (≈ 0.018 µM)	–	0.012 (≈ 0.018 µM)	0.2 (≈ 0.3 µM)	0.05 (≈ 0.075 µM)	0.05 (≈ 0.075 µM)	0.024 (≈ 0.036 µM)	–
Nc1nc(/C(=N/OCc2cc(=O)c(O)cn2O)C(=O)N[C@@H]2C(=O)N3C(C(=O)[O-])=C(CSc4cc[n+](CC(=O)O)cc4)SC[C@H]23)cs1 [No. 12, (6S,7S)-7-[(Z)-2-(2-aminothiazol-4-yl)-2-(1,5-dihydroxy-4-pyridone-2-ylmethoxyimino)acetamide]-3-[(1-carboxymethyl-4-pyridinio)thiomethyl]isocephem-4-carboxylate]	12.5 (≈ 18.1 µM)	0.012 (≈ 0.0174 µM)	≤ 0.006	–	0.05 (≈ 0.0725 µM)	0.39 (≈ 0.565 µM)	0.1 (≈ 0.145 µM)	0.2 (≈ 0.29 µM)	0.1 (≈ 0.145 µM)	–
Cc1nc(SCC2=C(C(=O)O)N3C(=O)[C@@H](NC(=O)/C(=N\OCc4cc(=O)c(O)cn4O)c4csc(N)n4)[C@H]3CS2)sc1CC(=O)O [No. 13, (6S,7S)-7-[(Z)-2-(2-aminothiazol-4-yl)-2-(1,5-dihydroxy-4-pyridone-2-ylmethoxyimino)acetamide]-3-[(5-carboxymethyl-4-methyl-thiazol-2-yl)thiomethyl]isocephem-4-carboxylic acid]	100 (≈ 141 µM)	0.012 (≈ 0.0169 µM)	≤ 0.006	–	0.012 (≈ 0.0169 µM)	0.012 (≈ 0.0169 µM)	0.05 (≈ 0.0704 µM)	0.05 (≈ 0.0704 µM)	0.024 (≈ 0.0338 µM)	–
CC(C)(O/N=C(\C(=O)N[C@@H]1C(=O)N2C(C(=O)[O-])=C(CSc3cc[n+](Cc4cc(=O)c(O)c[nH]4)cc3)CS[C@H]12)c1csc(N)n1)C(=O)O [No. 14]	6.25 (≈ 8.91 µM)	0.05 (≈ 0.0712 µM)	0.012 (≈ 0.0171 µM)	0.05 (≈ 0.0712 µM)	0.024 (≈ 0.0342 µM)	0.39 (≈ 0.556 µM)	0.2 (≈ 0.285 µM)	0.1 (≈ 0.142 µM)	–	–
CC(C)(O/N=C(\C(=O)N[C@@H]1C(=O)N2C(C(=O)[O-])=C(CSc3cc[n+](CC(=O)NNC(=O)c4ccc(O)c(O)c4)cc3)CS[C@H]12)c1csc(N)n1)C(=O)O [No. 15, (6R,7R)-7-[(Z)-2-(2-aminothiazol-4-yl)-2-(1-carboxy-1-methylethoxy)imino]acetamide-3-[1-(N-3,4-dihydroxybenzamide)carbamoylmethyl-4-pyridinio]thiomethyl-3-cephem-4-carboxylate]	–	0.012 (≈ 0.0153 µM)	0.012 (≈ 0.0153 µM)	0.05 (≈ 0.0635 µM)	0.05 (≈ 0.0635 µM)	0.1 (≈ 0.127 µM)	0.05 (≈ 0.0635 µM)	0.05 (≈ 0.0635 µM)	–	3.13 (≈ 3.98 µM)
